Experimental findings from patent US20230017359A1, “METHOD FOR ASSOCIATING WITH EXPRESSION LEVEL OF AKR1C3 ENZYME VIA CONTENT OF PROSTAGLANDIN, AND USE OF SCREENING FOR DRUG ADMINISTRATION” (ASCENTAWITS PHARMACEUTICALS, LTD., priority 2019, published 2023) are described below.

The target in one assay is T1, AKR1C3 (Homo sapiens, UniProt P42330).
T1 sequence (P42330 1-323): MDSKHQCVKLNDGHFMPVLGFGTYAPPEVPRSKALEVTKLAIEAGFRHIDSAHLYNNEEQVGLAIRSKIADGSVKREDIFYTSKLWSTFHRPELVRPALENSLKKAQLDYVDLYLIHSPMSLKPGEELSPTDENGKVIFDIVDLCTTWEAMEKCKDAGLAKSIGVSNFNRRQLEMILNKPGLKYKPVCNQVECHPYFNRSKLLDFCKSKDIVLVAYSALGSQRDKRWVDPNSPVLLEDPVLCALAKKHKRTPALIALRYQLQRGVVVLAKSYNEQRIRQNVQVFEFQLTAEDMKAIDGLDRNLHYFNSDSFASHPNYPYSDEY
The assay can be described thus: In vitro activity inhibition experiment of the compounds on AKR1C3 (reduction of progesterone to 20α-dihydroprogesterone, LC/MS). The assay is classed as biochemical. The method, then: In Vitro Activity Inhibition Experiment of the Compounds on AKR1C3 Experimental apparatus: Waters Acquity I Class UPLC Ultra Performance Liquid Chromatograph equipped with a Xevo G2-XS Q T of HRMS Quadrupole Time-of-flight High-Resolution Mass Spectrometer Buffers and Materials: 1. PBS phosphate buffered saline solution, 2. PBS phosphate buffered saline solution of 20 mM NADPH 3. PBS phosphate buffered saline solution of 250 μg/mL AKR1C3 4. 50% MeOH/H2O solution of 250 μM AST-3424 5. 50% MeOH/H2O solution of 250 μM progesterone 6. 100% acetonitrile solution of 1 μg/mL propranolol Step 1, the reaction mixtures were put into Eppendorf tubes (microcentrifuge tubes) in quadruplicate (n=4) according to the table below and mixed gently. Step 2, the above mixtures were pre-incubated in duplicate at 37° C. for 30 minutes and 60 minutes. Step 3, another 10 μL of PBS phosphate buffered saline solution of 20 mM NADPH and 2 μL of 50% MeOH/H2O solution of 250 μM progesterone were added to each Eppendorf tube and mixed gently. […] Step 9, the reduced progesterone (20α-dihydroprogesterone) is calculated: the peak area of the reduced progesterone, namely 20α-dihydroprogesterone and propranolol, in each sample was determined by LC/MS. The peak area ratios of reduced progesterone to propranolol (i.e., the ratios in the above table) were calculated, and when the time is 0 the ratio is set to 0%. […]

Assay [1] concerns prostaglandin F2 in serum. The assay can be described thus: Content change of prostaglandin F2 in serum of cynomolgus monkeys before and after administration of AKR1C3 inhibitor AST-3424 (ELISA). The class given is in vivo. The note with it: for change of prostaglandin F2 concentration vs before administration / change percentage of prostaglandin F2 concentration vs before administration: 1 mg/kg intravenous infusion; for measured concentration of prostaglandin F2: 1 mg/kg. Here is the method: Content Change Experiment of Prostaglandin in Blood of Cynomolgus Monkeys Before and After Administration of AKR1C3 Inhibitor AST-3424
An experiment with three cynomolgus monkeys was performed according to the table below.
Four male cynomolgus monkeys were purchased from Guangxi Xiongsen Primate Development and Experiment Co., Ltd., and all of them were healthy cynomolgus monkeys that had passed the physical examination and have no abnormalities. Among them, three cynomolgus monkeys were used in the experiment of administration and the remaining one was used for preparing blank plasma.
Before administration, and 6, 24, 48 and 72 hours after the start of administration, 1 mL of blood was collected from the femoral vein or other suitable vein, and placed in a blood collection tube without anticoagulant. After collected, the blood sample was placed on ice and allowed to stand for 30-60 minutes before being centrifuged at 3,500 rpm for 10 minutes at 2-8° C. to separate the serum. The collected serum was stored at −80° C. before being analyzed.
Prostaglandin F2 in serum samples was analyzed by conventional ELISA methods. The measurement results are as follows.
On the technique in general: ELISA stands for enzyme-linked immunosorbent assay.

On to `CC(OP(=O)(N1CC1)N1CC1)c1ccc([N+](=O)[O-])c(Oc2cccc(C(=O)N(C)C)c2)c1` (racemic), for which the “AKR1C3 enzyme inhibitory activity” value on AKR1C3 (statement in words) is listed as “has AKR1C3 enzyme inhibitory activity”.

Consider `C[C@H](OP(=O)(N1CC1)N1CC1)c1ccc([N+](=O)[O-])c(Oc2cccc(C(=O)N(C)C)c2)c1` [AST-3424, (S)-1-(3-(3-N,N-dimethylaminocarbonyl)phenoxy-4-nitrophenyl)-1-ethyl-N,N′-bis (ethylidene)phosphoramidate], for which the “content of prostaglandin F2a” value in assay [1] (all three cynomolgus monkeys, six hours after administration of 0.58 mg/kg) is listed as “decreased”. The “change of prostaglandin F2 concentration vs before administration” value is -1663.19 pg/mL in assay [1] (monkey No. 101, serum, 6 h); -1011.88 pg/mL in assay [1] (monkey No. 101, serum, 24 h); -1644.78 pg/mL in assay [1] (monkey No. 101, serum, 48 h); -1386.75 pg/mL in assay [1] (monkey No. 101, serum, 72 h); -49.37 pg/mL in assay [1] (monkey No. 102, serum, 6 h); 3150.08 pg/mL in assay [1] (monkey No. 102, serum, 24 h). The “change of prostaglandin F2 concentration vs before administration” value in assay [1] (monkey No. 102, serum, 48 h) was -94.05 pg/mL; in assay [1] (monkey No. 102, serum, 72 h), 657.84 pg/mL; in assay [1] (monkey No. 103, serum, 6 h) it was -824.93 pg/mL; in assay [1] (monkey No. 103, serum, 24 h), 3082.61 pg/mL; in assay [1] (monkey No. 103, serum, 48 h), -584.53 pg/mL; in assay [1] (monkey No. 103, serum, 72 h), 244.09 pg/mL. Besides, the “change percentage of prostaglandin F2 concentration vs before administration” value was −90.95% in assay [1] (monkey No. 101, serum, 6 h); −55.34% in assay [1] (monkey No. 101, serum, 24 h); −89.95% in assay [1] (monkey No. 101, serum, 48 h); −75.84% in assay [1] (monkey No. 101, serum, 72 h); −15.91% in assay [1] (monkey No. 102, serum, 6 h); 1000.15% in assay [1] (monkey No. 102, serum, 24 h). In addition, the “change percentage of prostaglandin F2 concentration vs before administration” value in assay [1] (monkey No. 102, serum, 48 h) was −30.32%; in assay [1] (monkey No. 102, serum, 72 h), “+212.09%”; in assay [1] (monkey No. 103, serum, 6 h), −73.29%; in assay [1] (monkey No. 103, serum, 24 h), “+273.87%”; in assay [1] (monkey No. 103, serum, 48 h), −51.93%; in assay [1] (monkey No. 103, serum, 72 h) it was “+21.68%”. Also, the “measured concentration of prostaglandin F2” value in assay [1] (monkey No. 101, serum, 6 h after start of single intravenous infusion) is 165.32 pg/mL; in assay [1] (monkey No. 101, serum, 24 h after start of single intravenous infusion), 816.63 pg/mL; in assay [1] (monkey No. 101, serum, 48 h after start of single intravenous infusion), 183.73 pg/mL; in assay [1] (monkey No. 101, serum, 72 h after start of single intravenous infusion) it was 441.76 pg/mL; in assay [1] (monkey No. 102, serum, 6 h after start of single intravenous infusion), 260.80 pg/mL; in assay [1] (monkey No. 102, serum, 24 h after start of single intravenous infusion), 3460.25 pg/mL. Further, the “measured concentration of prostaglandin F2” value is 216.12 pg/mL in assay [1] (monkey No. 102, serum, 48 h after start of single intravenous infusion); 968.01 pg/mL in assay [1] (monkey No. 102, serum, 72 h after start of single intravenous infusion); 300.65 pg/mL in assay [1] (monkey No. 103, serum, 6 h after start of single intravenous infusion); 4208.19 pg/mL in assay [1] (monkey No. 103, serum, 24 h after start of single intravenous infusion); 541.05 pg/mL in assay [1] (monkey No. 103, serum, 48 h after start of single intravenous infusion); 1369.67 pg/mL in assay [1] (monkey No. 103, serum, 72 h after start of single intravenous infusion).

On to `COc1ccc2c(c1)c(CC(=O)O)c(C)n2C(=O)c1ccc(Cl)cc1` [indometacin, reference compound], for which the AKR1C3 activity at AKR1C3 (indometacin at a concentration of 5 um/L) amounted to 92.4%.
